Measurements from patent US6620828B2, “Thiazole compounds and pharmaceutical compositions for inhibiting protein kinases and methods for their use” (Agouron Pharmaceuticals, Inc., priority 1999, dated 2003).

System: human umbilical vein endothelial cells (HUVEC)
Assay: HUVEC proliferation assay
Format: cell-based
Conditions: Homo sapiens, HUVEC, crude combinatorial urea library; for inhibition at 0.01 µM: 10 nM, read-out: Inhibition of HUVEC Proliferation % inhibition @ 10 nM; for inhibition at 0.05 µM: 50 nM, read-out: Inhibition of HUVEC Proliferation % inhibition @ 50 nM
Method: HUVEC Proliferation Assay
This assay determines the ability of a test compound to inhibit the growth factor-stimulated proliferation of human umbilical vein endothelial cells (“HUVEC”). HUVEC cells (passage 3-4, Clonetics, Corp.) were thawed into EGM2 culture medium (Clonetics Corp) in T75 flasks. Fresh EGM2 medium was added to the flasks 24 hours later. Four or five days later, cells were exposed to another culture medium (F12K medium supplemented with 10% fetal bovine serum (FBS), 60 μg/ml endothelial cell growth supplement (ECGS), and 0.1 mg/ml heparin). Exponentially-growing HUVEC cells were used in experiments thereafter. Ten to twelve thousand HUVEC cells were plated in 96-well dishes in 100 μl of rich, culture medium (described above). The cells were allowed to attach for 24 hours in this medium. The medium was then removed by aspiration and 105 μl of starvation media (F12K+1% FBS) was added to each well. After 24 hours, 15 μl of test agent dissolved in 1% DMSO in starvation medium or this vehicle alone was added into each treatment well; the final DMSO concentration was 0.1%. One hour later, 30 μl of VEGF (30 ng/ml) in starvation media was added to all wells except those containing untreated controls; the final VEGF concentration was 6 ng/ml. Cellular proliferation was quantified 72 hours later by MTT dye reduction, at which time cells were exposed for 4 hours MTT (Promega Corp.). Dye reduction was stopped by addition of a stop solution (Promega Corp.) and absorbance at 595 λ was determined on a 96-well spectrophotometer plate reader.
IC50 values were calculated by curve-fitting the response of A^595 to various concentrations of the test agent; typically, seven concentrations separated by 0.5 log were employed, with triplicate wells at each concentration. For screening compound library plates, one or two concentrations (one well per concentration) were employed, and the % inhibition was calculated by the following formula:
% inhibition=(control−test) divided by (control−starvation) […]
control=A^595 when VEGF is present without test agent test=A^595 when VEGF is present with test agent starvation=A^595 when VEGF and test agent are both absent.

COc1cccc(C(=O)Nc2cccc(-c3csc(-c4sc(NC(=O)NCCNc5ccccc5)nc4N)n3)c2)c1
inhibition at 0.01 µM: 28% | inhibition at 0.05 µM: 62%

COc1cccc(C(=O)Nc2cccc(-c3csc(-c4sc(NC(=O)NC5CCN(Cc6ccccc6)CC5)nc4N)n3)c2)c1
inhibition at 0.01 µM: -22% | inhibition at 0.05 µM: 23%

COc1cccc(C(=O)Nc2cccc(-c3csc(-c4sc(NC(=O)NCC(C)(C)CN(C)C)nc4N)n3)c2)c1
inhibition at 0.01 µM: -25% | inhibition at 0.05 µM: 36%

COc1cccc(C(=O)Nc2cccc(-c3csc(-c4sc(NC(=O)N[C@H]5CC[C@H](O)CC5)nc4N)n3)c2)c1
inhibition at 0.01 µM: -6% | inhibition at 0.05 µM: 21%

COc1cccc(C(=O)Nc2cccc(-c3csc(-c4sc(NC(=O)NCCC(=O)O)nc4N)n3)c2)c1
inhibition at 0.01 µM: -1% | inhibition at 0.05 µM: 8%

COCCNC(=O)Nc1nc(N)c(-c2nc(-c3cccc(NC(=O)c4cccc(OC)c4)c3)cs2)s1
inhibition at 0.01 µM: 35% | inhibition at 0.05 µM: 32%

COc1cccc(C(=O)Nc2cccc(-c3csc(-c4sc(NC(=O)NCC(F)(F)F)nc4N)n3)c2)c1
inhibition at 0.01 µM: 20% | inhibition at 0.05 µM: 15%

COc1cccc(C(=O)Nc2cccc(-c3csc(-c4sc(NC(=O)NCCCn5ccnc5)nc4N)n3)c2)c1
inhibition at 0.01 µM: 9% | inhibition at 0.05 µM: 39%

COc1cccc(C(=O)Nc2cccc(-c3csc(-c4sc(NC(=O)NCCc5ccc(S(N)(=O)=O)cc5)nc4N)n3)c2)c1
inhibition at 0.01 µM: 34% | inhibition at 0.05 µM: 49%

CCCCN(CC)CCNC(=O)Nc1nc(N)c(-c2nc(-c3cccc(NC(=O)c4cccc(OC)c4)c3)cs2)s1
inhibition at 0.01 µM: 1% | inhibition at 0.05 µM: 10%

COc1cccc(C(=O)Nc2cccc(-c3csc(-c4sc(NC(=O)NCc5ccc(N(C)C)cc5)nc4N)n3)c2)c1
inhibition at 0.01 µM: 19% | inhibition at 0.05 µM: 67%

COc1cccc(C(=O)Nc2cccc(-c3csc(-c4sc(NC(=O)NCP(=O)(O)O)nc4N)n3)c2)c1
inhibition at 0.01 µM: -8% | inhibition at 0.05 µM: 38%

COc1cccc(C(=O)Nc2cccc(-c3csc(-c4sc(NC(=O)NC(CO)CO)nc4N)n3)c2)c1
inhibition at 0.01 µM: -17% | inhibition at 0.05 µM: 52%

COc1cccc(C(=O)Nc2cccc(-c3csc(-c4sc(NC(=O)NCc5ccc(N)cc5)nc4N)n3)c2)c1
inhibition at 0.01 µM: 4% | inhibition at 0.05 µM: 35%

COc1cccc(C(=O)Nc2cccc(-c3csc(-c4sc(NC(=O)N[C@@H](CO)C(N)=O)nc4N)n3)c2)c1
inhibition at 0.01 µM: 5% | inhibition at 0.05 µM: 24%

COc1cccc(C(=O)Nc2cccc(-c3csc(-c4sc(NC(=O)NCCNC(C)=O)nc4N)n3)c2)c1
inhibition at 0.01 µM: 20% | inhibition at 0.05 µM: 77%

COc1cccc(C(=O)Nc2cccc(-c3csc(-c4sc(NC(=O)N[C@H](CO)Cc5c[nH]cn5)nc4N)n3)c2)c1
inhibition at 0.01 µM: 16% | inhibition at 0.05 µM: 19%

CCC(CO)NC(=O)Nc1nc(N)c(-c2nc(-c3cccc(NC(=O)c4cccc(OC)c4)c3)cs2)s1 (stereo not drawn)
inhibition at 0.01 µM: 13% | inhibition at 0.05 µM: 62%

COc1cccc(C(=O)Nc2cccc(-c3csc(-c4sc(NC(=O)NCCCC(=O)O)nc4N)n3)c2)c1
inhibition at 0.01 µM: 23% | inhibition at 0.05 µM: 24%

COc1cccc(C(=O)Nc2cccc(-c3csc(-c4sc(NC(=O)NCCOCCO)nc4N)n3)c2)c1
inhibition at 0.01 µM: 13% | inhibition at 0.05 µM: 92%

COc1cccc(C(=O)Nc2cccc(-c3csc(-c4sc(NC(=O)NCCN5CCOCC5)nc4N)n3)c2)c1
inhibition at 0.01 µM: 1% | inhibition at 0.05 µM: 121%

COc1cccc(C(=O)Nc2cccc(-c3csc(-c4sc(NC(=O)NCCN5CCNCC5)nc4N)n3)c2)c1
inhibition at 0.01 µM: 4% | inhibition at 0.05 µM: 39%

COc1cccc(C(=O)Nc2cccc(-c3csc(-c4sc(NC(=O)NCCc5ccccn5)nc4N)n3)c2)c1
inhibition at 0.01 µM: -2% | inhibition at 0.05 µM: 128%

COc1cccc(C(=O)Nc2cccc(-c3csc(-c4sc(NC(=O)NCCN5CCCC5)nc4N)n3)c2)c1
inhibition at 0.01 µM: 7% | inhibition at 0.05 µM: 17%
